Experimental data published in patent US10745382B2 (BRISTOL-MYERS SQUIBB COMPANY, priority 2015, dated 2020).
Where two headings read alike, the source gives them in different places.

Target: T1, PD-1/PD-L1 (Homo sapiens, UniProt Q9NZQ7)
T1 construct: made in house; host or cells: HEK293T
Assay: PD-1/PD-L1 Homogenous Time-Resolved Fluorescence (HTRF) binding assay
Details: PD-L1-His 10 nM, PD-1-Ig 20 nM, read-out: Range or IC50
Outline: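 dPBS + 0.1% BSA + 0.05% Tween-20 buffer; Eu-cryptate anti-Ig 1 nM final, APC anti-His 20 nM final; HTRF read. Counter-assays: PD-1-Ig/PD-L2-His 20 & 5 nM, CD80-His/PD-L1-Ig 100 & 10 nM.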

T1 sequence (Q9NZQ7 with tags, fused parts or gaps): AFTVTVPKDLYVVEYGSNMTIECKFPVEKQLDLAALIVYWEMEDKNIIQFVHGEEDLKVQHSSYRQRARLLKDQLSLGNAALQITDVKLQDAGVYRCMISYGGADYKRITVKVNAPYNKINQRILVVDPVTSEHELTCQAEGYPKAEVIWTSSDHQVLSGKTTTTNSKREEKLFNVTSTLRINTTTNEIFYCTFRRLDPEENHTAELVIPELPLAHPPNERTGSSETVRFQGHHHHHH

IC50 (numeric IC50) [nM] | IC50 (value given as range class) [nM] | SMILES
– | 0.21 to 10 | Cc1c(COc2cc(OCc3cncc(C#N)c3)c(CNC(C)(CO)CO)cc2Cl)cccc1-c1cccc(OCCCN2CC[C@@H](O)C2)c1C [Example 2324, (R)-5-((4-chloro-2-(((1,3-dihydroxy-2-methylpropan-2-yl)amino)methyl)-5-((3′-(3-(3-hydroxypyrrolidin-1-yl)propoxy)-2,2′-dimethyl-[1,1′-biphenyl]-3-yl)methoxy)phenoxy)methyl)nicotinonitrile]
– | 100 to 2000 | Cc1c(COc2cc(OCc3cncc(C#N)c3)c(CN3CCC[C@H]3C(=O)O)cc2Cl)cccc1-c1cccc(C(=O)N2CCOCC2)c1C [Example 4049, (5-chloro-2-((5-cyanopyridin-3-yl)methoxy)-4-((2,2′-dimethyl-3′-(morpholine-4-carbonyl)-[1,1′-biphenyl]-3-yl)methoxy)benzyl)-L-proline]
– | 0.21 to 10 | Cc1c(COc2cc(OCc3cncc(C#N)c3)c(CN3CCCC[C@H]3C(=O)O)cc2Cl)cccc1-c1cccc(OCCCN2CCC(F)(F)C2)c1C [Example 4112, (S)-1-(5-chloro-2-((5-cyanopyridin-3-yl)methoxy)-4-((3′-(3-(3,3-difluoropyrrolidin-1-yl)propoxy)-2,2′-dimethyl-[1,1′-biphenyl]-3-yl)methoxy)benzyl)piperidine-2-carboxylic Acid]
– | 0.21 to 10 | Cc1c(COc2cc(OCc3cncc(C#N)c3)c(CNC(CO)(CO)CO)cc2Cl)cccc1-c1cccc(OCCCN2CCCC(CO)C2)c1C (stereo not drawn) [Example 2284, 5-((4-chloro-2-(((1,3-dihydroxy-2-(hydroxymethyl)propan-2-yl)amino)methyl)-5-((3′-(3-(3-(hydroxymethyl)piperidin-1-yl)propoxy)-2,2′-dimethyl-[1,1′-biphenyl]-3-yl)methoxy)phenoxy)methyl)nicotinonitrile]
– | 100 to 2000 | CCNC(=O)c1cccc(-c2cccc(COc3cc(OCc4cc(F)cc(F)c4)c(CN4C[C@H](O)C[C@H]4C(=O)O)cc3Cl)c2C)c1C [Example 4019, (2S,4R)-1-(5-chloro-2-((3,5-difluorobenzyl)oxy)-4-((3′-(ethylcarbamoyl)-2,2′-dimethyl-[1,1′-biphenyl]-3-yl)methoxy)benzyl)-4-hydroxypyrrolidine-2-carboxylic Acid]
– | 10 to 100 | Cc1c(COc2cc(OCc3cncc(C#N)c3)c(CN3CCCC[C@H]3C(=O)O)cc2Cl)cccc1-c1cccc(OCCCN2CCC(O)C2)c1C(F)(F)F (stereo in doubt) [Example 3014, (S)-1-(5-chloro-2-((5-cyanopyridin-3-yl)methoxy)-4-((3′-(3-((R)-3-hydroxypyrrolidin-1-yl)propoxy)-2-methyl-2′-(trifluoromethyl)-[1,1′-biphenyl]-3-yl)methoxy)benzyl)piperidine-2-carboxylic Acid]
– | 100 to 2000 | Cc1c(COc2cc(OCc3cncc(C#N)c3)c(CN3C[C@@H](O)C[C@H]3C(=O)O)cc2Cl)cccc1-c1cccc(C(=O)N(C)C)c1C [Example 4033, (2S,4S)-1-(5-chloro-2-((5-cyanopyridin-3-yl)methoxy)-4-((3′-(dimethylcarbamoyl)-2,2′-dimethyl-[1,1′-biphenyl]-3-yl)methoxy)benzyl)-4-hydroxypyrrolidine-2-carboxylic Acid]
– | 0.21 to 10 | Cc1c(COc2cc(OCc3cncc(C#N)c3)c(CN[C@@H](CCCNC(=N)N)C(=O)O)cc2Cl)cccc1-c1cccc(OCCCN2CCC(O)C2)c1 (stereo in doubt) [Example 3002, (S)-2-((5-chloro-2-((5-cyanopyridin-3-yl)methoxy)-4-((3′-(3-((R)-3-hydroxypyrrolidin-1-yl)propoxy)-2-methyl-[1,1′-biphenyl]-3-yl)methoxy)benzyl)amino)-5-guanidinopentanoic Acid]
– | 10 to 100 | Cc1c(COc2cc(OCc3cncc(C#N)c3)c(CNC(CO)CO)cc2Cl)cccc1-c1cccc(C(=O)N2CCCC2)c1C [Example 4038, 5-((4-chloro-2-(((1,3-dihydroxypropan-2-yl)amino)methyl)-5-((2,2′-dimethyl-3′-(pyrrolidine-1-carbonyl)-[1,1′-biphenyl]-3-yl)methoxy)phenoxy)methyl)nicotinonitrile]
– | 0.21 to 10 | Cc1cc(OCc2cccc(-c3cccc(OCCCN4CC[C@@H](O)C4)c3C)c2C)cc(OCc2cncc(C#N)c2)c1CNC(CO)CO [Example 4087, (R)-5-((2-(((1,3-dihydroxypropan-2-yl)amino)methyl)-5-((3′-(3-(3-hydroxypyrrolidin-1-yl)propoxy)-2,2′-dimethyl-[1,1′-biphenyl]-3-yl)methoxy)-3-methylphenoxy)methyl)nicotinonitrile]
– | 0.21 to 10 | CCCC[C@H](NCc1cc(Cl)c(OCc2cccc(-c3cccc(OCCCN4CC[C@@H](O)C4)c3C)c2C)cc1OCc1cncc(C#N)c1)C(=O)O [Example 4151, (S)-2-((5-chloro-2-((5-cyanopyridin-3-yl)methoxy)-4-((3′-(3-((R)-3-hydroxypyrrolidin-1-yl)propoxy)-2,2′-dimethyl-[1,1′-biphenyl]-3-yl)methoxy)benzyl)amino)hexanoic Acid]

Second part, the molecule before the results:

SMILES | IC50 (numeric IC50) [nM] | IC50 (value given as range class) [nM]
Cc1c(COc2cc(OCCCN3CC[C@@H](O)C3)c(CN3CCCC[C@H]3C(=O)O)cc2Cl)cccc1-c1cccc(OCCCN2CC[C@@H](O)C2)c1C [Example 1529, (S)-1-(5-chloro-2-(3-((R)-3-hydroxypyrrolidin-1-yl)propoxy)-4-((3′-(3-((R)-3-hydroxypyrrolidin-1-yl)propoxy)-2,2′-dimethyl-[1,1′-biphenyl]-3-yl)methoxy)benzyl)piperidine-2-carboxylic Acid] | 2 | –
Cc1c(COc2cc(OCc3cncc(C#N)c3)c(CN3CCCC[C@H]3C(=O)O)cc2Cl)cccc1-c1cccc(OCCCN2CCC(O)(C(=O)O)CC2)c1Cl [Example 1097, (S)-1-(4-((3′-(3-(4-carboxy-4-hydroxypiperidin-1-yl)propoxy)-2′-chloro-2-methyl-[1,1′-biphenyl]-3-yl)methoxy)-5-chloro-2-((5-cyanopyridin-3-yl)methoxy)benzyl)piperidine-2-carboxylic Acid] | – | 0.21 to 10
Cc1c(COc2cc(OCc3cncc(C#N)c3)c(CNC(C)(CO)CO)cc2Cl)cccc1-c1cccc(CNCCN2CCOCC2)c1Cl [Example 2092, 5-((4-chloro-5-((2′-chloro-2-methyl-3′-(((2-morpholinoethyl)amino)methyl)-[1,1′-biphenyl]-3-yl)methoxy)-2-(((1,3-dihydroxy-2-methylpropan-2-yl)amino)methyl)phenoxy)methyl)nicotinonitrile] | – | 0.21 to 10
Cc1c(COc2cc(OCc3cncc(C#N)c3)c(CN[C@@](C)(CO)C(=O)O)cc2Cl)cccc1-c1cccc(OCCN2CCOCC2)c1 [Example 1002, (S)-2-((5-chloro-2-((5-cyanopyridin-3-yl)methoxy)-4-((2-methyl-3′-(2-morpholinoethoxy)-[1,1′-biphenyl]-3-yl)methoxy)benzyl)amino)-3-hydroxy-2-methylpropanoic Acid] | – | 10 to 100
Cc1c(COc2cc(OCc3cncc(C#N)c3)c(CN3CC[C@H]3C(=O)O)cc2Cl)cccc1-c1cccc(OCCC(=O)N2CC[C@@H](O)C2)c1 [Example 1012, (S)-1-(5-chloro-2-((5-cyanopyridin-3-yl)methoxy)-4-((3′-(3-((R)-3-hydroxypyrrolidin-1-yl)-3-oxopropoxy)-2-methyl-[1,1′-biphenyl]-3-yl)methoxy)benzyl)azetidine-2-carboxylic Acid] | – | 0.21 to 10
Cc1c(COc2cc(OCc3cncc(C#N)c3)c(CNC(CO)CO)cc2Cl)cccc1-c1cccc(OCCCN(C)C[C@H](O)CO)c1Cl [Example 2050, (S)-5-((4-chloro-5-((2′-chloro-3′-(3-((2,3-dihydroxypropyl)(methyl)amino)propoxy)-2-methyl-[1,1′-biphenyl]-3-yl)methoxy)-2-(((1,3-dihydroxypropan-2-yl)amino)methyl)phenoxy)methyl)nicotinonitrile] | – | 0.21 to 10
Cc1cc(OCCCN2CC[C@@H](O)C2)ccc1-c1cccc(COc2cc(OCc3cncc(C#N)c3)c(CN[C@H](CO)C(=O)O)cc2Cl)c1C [Example 1070, (R)-2-((5-chloro-2-((5-cyanopyridin-3-yl)methoxy)-4-((4′-(3-((R)-3-hydroxypyrrolidin-1-yl)propoxy)-2,2′-dimethyl-[1,1′-biphenyl]-3-yl)methoxy)benzyl)amino)-3-hydroxypropanoic Acid] | – | 0.21 to 10
Cc1c(COc2cc(OCc3cncc(C#N)c3)c(CNC[C@H](O)CO)cc2Cl)cccc1-c1cccc(OCCCN2CC[C@H](O)[C@@H](O)C2)c1Cl [Example 2030, 5-((4-chloro-5-((2′-chloro-3′-(3-((3S,4S)-3,4-dihydroxypiperidin-1-yl)propoxy)-2-methyl-[1,1′-biphenyl]-3-yl)methoxy)-2-((((S)-2,3-dihydroxypropyl)amino)methyl)phenoxy)methyl)nicotinonitrile] | – | 0.21 to 10
Cc1c(COc2cc(OCc3cncc(S(C)(=O)=O)c3)c(CN[C@H](CO)C(=O)O)cc2Cl)cccc1-c1cccc(OCCCN2CCC(CO)(C(=O)O)C2)c1C (stereo partly drawn) [Example 1050, 1-(3-((3′-((4-((((R)-1-carboxy-2-hydroxyethyl)amino)methyl)-2-chloro-5-((5-(methylsulfonyl)pyridin-3-yl)methoxy)phenoxy)methyl)-2,2′-dimethyl-[1,1′-biphenyl]-3-yl)oxy)propyl)-3-(hydroxymethyl)pyrrolidine-3-carboxylic Acid] | – | 0.21 to 10
Cc1c(COc2cc(OCc3cncc(C#N)c3)c(CN[C@@](C)(CO)C(=O)O)cc2Cl)cccc1-c1cccc(OCC(=O)N2CC[C@H](O)C2)c1 [Example 1004, (S)-2-((5-chloro-2-((5-cyanopyridin-3-yl)methoxy)-4-((3′-(2-((S)-3-hydroxypyrrolidin-1-yl)-2-oxoethoxy)-2-methyl-[1,1′-biphenyl]-3-yl)methoxy)benzyl)amino)-3-hydroxy-2-methylpropanoic Acid] | – | 10 to 100
